Data: ChEMBL document CHEMBL4270506, “Recent advances in drug discovery of phototherapeutic non-porphyrinic anticancer agents” (Eur J Med Chem, 2017)

How the values were obtained:
[1] = Dark toxicity in human PBMC assessed as reduction in cell viability after 24 hrs by MTT assay; format: cell-based
[2] = Dark toxicity in human C8161 cells assessed as reduction in cell viability after 24 hrs by MTT assay; format: cell-based
[3] = Dark toxicity in mouse B16F10 cells assessed as reduction in cell viability after 24 hrs by MTT assay; format: cell-based, B16-F10
PBMC [4] = assay: Phototoxicity in human PBMC assessed as reduction in cell viability under irradiation with >500 nm light after 24 hrs by MTT assay; format: cell-based; details: light or radiation study
[5] = Phototoxicity in human C8161 cells assessed as reduction in cell viability under irradiation with >500 nm light after 24 hrs by MTT assay; format: functional, cell-based; details: C8161, light or radiation study
B16-F10 = assay: Phototoxicity in mouse B16F10 cells assessed as reduction in cell viability under irradiation with >500 nm light after 24 hrs by MTT assay; format: functional, cell-based; details: B16-F10, light or radiation study
PBMC [6] = assay: Phototoxicity in human PBMC assessed as reduction in cell viability at 20 uM under irradiation with >500 nm light after 24 hrs by MTT assay; format: cell-based
[7] = Phototoxicity in human MCF7/DX cells assessed as inhibition of cell growth at 1 uM pre-incubated for 4 hrs before photoirradiation with 530 to 550 nm light and measured after 24 hrs post irradiation by MTT assay; format: functional; details: light or radiation study, read-out: GI
[8] = Phototoxicity in human MCF7/DX cells assessed as inhibition of cell growth at 1 uM pre-incubated for 24 hrs before photoirradiation with 530 to 550 nm light and measured after 24 hrs post irradiation by MTT assay; format: functional; details: light or radiation study, read-out: GI
MCF7 [9] = assay: Phototoxicity in wild type human MCF7 cells assessed as inhibition of cell growth at 1 uM pre-incubated for 24 hrs before photoirradiation with 530 to 550 nm light and measured after 24 hrs post irradiation by MTT assay; format: functional; details: MCF7, light or radiation study, read-out: GI
[10] = Dark toxicity in wild type human MCF7 cells assessed as inhibition of cell growth at 1 uM after 24 hrs by MTT assay; format: cell-based; details: read-out: GI
[11] = Phototoxicity in human MCF7/DX cells assessed as inhibition of cell growth at 1 uM pre-incubated for 4 hrs before photoirradiation with 630 nm light and measured after 24 hrs post irradiation by MTT assay; format: functional; details: light or radiation study, read-out: GI
[12] = Dark toxicity in human MCF7/DX cells assessed as inhibition of cell growth at 1 uM after 24 hrs by MTT assay; format: cell-based; details: read-out: GI
MCF7 [13] = assay: Phototoxicity in wild type human MCF7 cells assessed as inhibition of cell growth at 1 uM pre-incubated for 24 hrs before photoirradiation with 630 nm light and measured after 24 hrs post irradiation by MTT assay; format: functional; details: MCF7, light or radiation study, read-out: GI
MCF7 [14] = assay: Phototoxicity in wild type human MCF7 cells assessed as inhibition of cell growth at 1 uM pre-incubated for 4 hrs before photoirradiation with 630 nm light and measured after 24 hrs post irradiation by MTT assay; format: functional; details: MCF7, light or radiation study, read-out: GI
MCF7 [15] = assay: Phototoxicity in wild type human MCF7 cells assessed as inhibition of cell growth at 1 uM pre-incubated for 4 hrs before photoirradiation with 530 to 550 nm light and measured after 24 hrs post irradiation by MTT assay; format: functional; details: MCF7, light or radiation study, read-out: GI
[16] = Phototoxicity in human MCF7/DX cells assessed as inhibition of cell growth at 1 uM pre-incubated for 24 hrs before photoirradiation with 630 nm light and measured after 24 hrs post irradiation by MTT assay; format: functional; details: light or radiation study, read-out: GI
HeLa [17] = assay: Phototoxicity in human HeLa cells assessed as reduction in cell viability in presence of irradiation with 625 nm laser light by MTT assay; format: functional, cell-based; details: light or radiation study
MCF7 [18] = assay: Phototoxicity in wild type human MCF7 cells assessed as inhibition of cell growth at 1 uM pre-incubated for 24 hrs before photoirradiation with 430 nm light and measured after 24 hrs post irradiation by MTT assay; format: functional; details: MCF7, light or radiation study, read-out: GI
[19] = Phototoxicity in human MCF7/DX cells assessed as inhibition of cell growth at 1 uM pre-incubated for 24 hrs before photoirradiation with 430 nm light and measured after 24 hrs post irradiation by MTT assay; format: functional; details: light or radiation study, read-out: GI
[20] = Phototoxicity in human MCF7/DX cells assessed as inhibition of cell growth at 1 uM pre-incubated for 4 hrs before photoirradiation with 430 nm light and measured after 24 hrs post irradiation by MTT assay; format: functional; details: light or radiation study, read-out: GI
MCF7 [21] = assay: Phototoxicity in wild type human MCF7 cells assessed as inhibition of cell growth at 1 uM pre-incubated for 4 hrs before photoirradiation with 430 nm light and measured after 24 hrs post irradiation by MTT assay; format: functional; details: MCF7, light or radiation study, read-out: GI
HeLa [22] = assay: Phototoxicity in human HeLa cells assessed as reduction in cell viability pre-incubated for 1 hr before photo-irradiation with 700 mW-630 nm laser light for 15 mins by MTT assay; format: functional, cell-based; details: light or radiation study
[23] = Dark toxicity in mouse L5178Y cells assessed as cell viability at 0.5 uM; format: cell-based; details: read-out: Activity
[24] = Dark toxicity in human HeLa cells assessed as reduction in cell viability by MTT assay; format: cell-based
[25] = Dark toxicity in human SiHa cells assessed as reduction in cell viability by MTT assay; format: cell-based
MIA PaCa-2 = assay: Phototoxicity in human MIAPaCa2 cells assessed as reduction in cell viability pre-incubated for 1 hr before photo-irradiation with 700 mW-630 nm laser light for 15 mins by MTT assay; format: functional, cell-based; details: MIA PaCa-2, light or radiation study
[26] = Phototoxicity in Chinese hamster AS52 cells assessed as cloning efficiency at 1 uM under irradiation by visible light at 337.5 kJ/m2 between 400 to 800 nm; format: functional, Cricetulus griseus
HCT-116 = assay: Phototoxicity in human HCT116 cells assessed as reduction in cell viability pre-incubated for 1 hr before photo-irradiation with 700 mW-630 nm laser light for 15 mins by MTT assay; format: functional, cell-based; details: HCT-116, light or radiation study
[27] = Phototoxicity in human SCC172 cells assessed as reduction in cell viability pre-incubated for 1 hr before photo-irradiation with 700 mW-630 nm laser light for 15 mins by MTT assay; format: functional, cell-based; details: SCC172, light or radiation study
[28] = Dark toxicity in human HCT116 cells assessed as reduction in cell viability by MTT assay; format: cell-based, HCT-116
L5178Y = assay: Phototoxicity in mouse L5178Y cells assessed as cell viability at 0.5 uM under irradiation by visible light at 337.5 kJ/m2 between 400 to 800 nm; format: functional; details: light or radiation study, read-out: Activity
[29] = Dark toxicity in human MCF7 cells assessed as reduction in cell viability by MTT assay; format: cell-based
[30] = Phototoxicity in human SCC131 cells assessed as reduction in cell viability pre-incubated for 1 hr before photo-irradiation with 700 mW-630 nm laser light for 15 mins by MTT assay; format: functional, cell-based; details: SCC131, light or radiation study
[31] = Dark toxicity in human MCF10A cells assessed as reduction in cell viability by MTT assay; format: cell-based, MCF-10A
MCF-10A = assay: Phototoxicity in human MCF10A cells assessed as reduction in cell viability pre-incubated for 1 hr before photo-irradiation with 700 mW-630 nm laser light for 15 mins by MTT assay; format: cell-based; details: light or radiation study
MDA-MB-231 = assay: Phototoxicity in human MDA-MB-231 cells assessed as reduction in cell viability pre-incubated for 1 hr before photo-irradiation with 700 mW-630 nm laser light for 15 mins by MTT assay; format: functional, cell-based; details: MDA-MB-231, light or radiation study
MCF7 [32] = assay: Phototoxicity in human MCF7 cells assessed as reduction in cell viability pre-incubated for 1 hr before photo-irradiation with 700 mW-630 nm laser light for 15 mins by MTT assay; format: functional, cell-based; details: MCF7, light or radiation study
SiHa = assay: Phototoxicity in human SiHa cells assessed as reduction in cell viability pre-incubated for 1 hr before photo-irradiation with 700 mW-630 nm laser light for 15 mins by MTT assay; format: functional, cell-based; details: light or radiation study
[33] = Dark toxicity in human SCC131 cells assessed as reduction in cell viability by MTT assay; format: cell-based
[34] = Dark toxicity in human MIAPaCa2 cells assessed as reduction in cell viability by MTT assay; format: cell-based, MIA PaCa-2
[35] = Dark toxicity in human SCC172 cells assessed as reduction in cell viability by MTT assay; format: cell-based
[36] = Dark toxicity in Chinese hamster AS52 cells assessed as cloning efficiency at 1 uM; format: cell-based, Cricetulus griseus
[37] = Dark toxicity in human MDA-MB-231 cells assessed as reduction in cell viability by MTT assay; format: cell-based
HeLa [38] = assay: Phototoxicity in human HeLa cells assessed as reduction in cell viability in presence of irradiation with white light; format: functional, cell-based; details: light or radiation study
HeLa [39] = assay: Phototoxicity in human HeLa cells assessed as reduction in cell viability in presence of irradiation with 700 to 1000 nm near-infrared light; format: functional, cell-based; details: light or radiation study
[40] = Phototoxicity in human keloid fibroblasts assessed as cell viability at 2 to 8 umol/L pre-incubated for 4 hrs before 0.5 J.cm2 UVA irradiation by MTT assay; format: functional

CCN1/C(=C\C=C\c2sc3cc4c(cc3[n+]2CC)sc(/C=C/C=C2\N(CC)c3ccccc3C2(C)C)[n+]4CC)C(C)(C)c2ccccc21
IC50 at 24 h [1]: 20 µM
IC50 at 24 h [2]: 20 µM
IC50 at 24 h [3]: 20 µM
IC50 (PBMC [4]): 20 µM
IC50 [5]: 5 µM
IC50 (B16-F10): 5 µM
Activity (PBMC [6]): <= 70%

CCN1/C(=C/C(C)=C/c2sc3ccccc3[n+]2CC)Sc2ccccc21
inhibition of growth at 1 µM [7]: 20%
inhibition of growth at 1 µM [8]: 20%
inhibition of growth at 1 µM (MCF7 [9]): 60%
inhibition at 24 h, 1 µM [10]: 20%
inhibition of growth at 1 µM [11]: 60%
inhibition at 24 h, 1 µM [12]: 10%
inhibition of growth at 1 µM (MCF7 [13]): 80%
inhibition of growth at 1 µM (MCF7 [14]): 50%
inhibition of growth at 1 µM (MCF7 [15]): 60%
inhibition of growth at 1 µM [16]: > 80%

COC(=O)c1ccc(C2=C3C(Br)=c4sc(-c5ccc(Br)s5)cc4=[N+]3[B-](F)(F)n3c2cc2sc(-c4ccc(Br)s4)cc23)cc1
IC50 (HeLa [17]): 7.12 µM

CCN1C(=O)/C(=C\C=C2/SCCN2C)OC1=S
inhibition of growth at 1 µM (MCF7 [18]): 20%
inhibition of growth at 1 µM [19]: 10%
inhibition of growth at 1 µM [20]: 40%
inhibition at 24 h, 1 µM [10]: 20%
inhibition at 24 h, 1 µM [12]: 10%
inhibition of growth at 1 µM (MCF7 [21]): > 40%

O=C1C(I)=C(O)C(=C2C(=O)C(c3c(O)c(I)c(O)c(I)c3O)=C2O)C(O)=C1I
IC50 (HeLa [22]): 36 µM
viability at 0.5 µM [23]: 90%
IC50 [24]: > 50 µM
IC50 [25]: > 50 µM
IC50 (MIA PaCa-2): 28.3 µM
Activity [26]: 10%
IC50 (HCT-116): 26 µM
IC50 [27]: 34.7 µM
IC50 [28]: > 50 µM
viability at 0.5 µM (L5178Y): < 10%
IC50 [29]: > 50 µM
IC50 [30]: 30.7 µM
IC50 [31]: > 50 µM
IC50 (MCF-10A): 44.7 µM
IC50 (MDA-MB-231): 19.8 µM
IC50 (MCF7 [32]): 25.3 µM
IC50 (SiHa): 33.7 µM
IC50 [33]: > 50 µM
IC50 [34]: > 50 µM
IC50 [35]: > 50 µM
Activity [36]: 90%
IC50 [37]: > 50 µM

Nc1ccc(-c2ccc3nc4ccc(-c5ccc(N)cc5)cc4[s+]c3c2)cc1
EC50 (HeLa [38]): 6 µM
EC50 (HeLa [39]): 8 µM

Nc1ccc(-c2nc3ccccc3s2)cc1
Activity [40]: 50%
